# According to patent US20260209183A1, “HETEROCYCLIC COMPOUNDS AND USES THEREOF” (CERTA THERAPEUTICS PTY LTD, priority 2022, published 2026):
# Molecular target: T1, human GPR68 (Homo sapiens, UniProt Q15743)
# T1 construct: host or cells: HEK293T
# Experiment: GPR68 cAMP GloSensor assay
# Assay type: cell-based
# Details: HEK293T cells transiently transfected with GPR68 and GloSensor-22F cAMP reporter; activation at pH 6.0; 10 μM top, 3-fold, 10 points, in duplicate
# Excerpt: The assay was developed to provide a quick screen assay to determine the potency and EC50s/IC50s of compounds against the GPR68 receptor with transient transfection cell.
# GPR68 senses extracellular pH.
# To determine the compound activity in GPR68 inhibition, an GPR68 dependent cAMP assay was developed and validated. Principle of this method: Expression of GPR68 in HEK293T cells by transient transfection of a GPR68-expression vector and a cAMP-sensing reporter vector (GloSensor, Promega). The transfected cells as a pool will be re-plated uniformly in assay plates, to minimize the in-experiment variation. The GPR68 receptor signal will be measured via Gs to CAMP increase as indicated by the Luc activation under basal (pH8.4 or pH7.4) or activated (pH6.5 or pH6.0) states.
# • GloSensor™ CAMP Reagent (Promega, Cat #E1291) • human GPR68 NM_001177676.2_pcDNA3.1 (+)(Genscript) • The GloSensor™-22F CAMP Reporter Vector (Promega, Cat #E2301) • DMEM (Gibco, Cat #11995065) • FBS, Qualified, New Zealand origin (Gibco, Cat #10091148) • Penicillin-Streptomycin (Gibco, Cat #15140122) • 0.25% Trypsin-EDTA (Gibco, Cat #25200056) • PBS (Gibco, Cat #10010049) • 1x HBSS (Gibco, Cat #14175079) • HEPES (Gibco, Cat #15630080) • MES (Sigma, Cat #M2933-25G) • TAPS (Sigma, Cat #T5316-25G) • NaOH (Sigma, Cat #221465) • BSA (Sigma, Cat #B2064-50G) • Opti-MEM (Gibco, Cat #31985070) • DMSO (Sigma, Cat #D5879-1L) • FuGene HD Transfection Reagent (Promega, Cat #E2311)
# • 1) Detached cells with 0.25% Trypsin when the cell confluence was about 80%. • 2)Resuspended the detached cells in 3 ml fresh cell culture medium. Counted the cell number and diluted the cells to proper density. • 3) Seeded 1.5∧10∧6 cells into 6-well plate (Cat. #3516) in 2 ml per well contained the need to transfection well so that the cells were 80-85% confluent at the time of transfection. • 4) Incubated the cells at 37° C. in a CO2 incubator for 6 hours.
# • 5) Gently aspirated off the DMEM medium. Then added the Opti-MEM® Medium without serum into 6-well plate. • 6) Added 2.5 μg GPR68 and 2.5 μg GloSensor-22F in 1:1 ratio and 12 μl FuGeneHD into 120 μl of Opti-MEM® Medium without serum. Mixed gently and incubated for 15 min at room temperature. • 7) After the 15-minute incubation, added 137 μl of DNA-Transfection Reagent complexes to each well containing cells and medium. Mixed gently by rocking the plate back and forth. • 8) Incubated the cells at 37° C. in a co2 incubator for 19 h until they were ready to assay for transgene expression.
# Seeded 40000 cells/well, 100 μl/well in 96-well plate (Cat. #3610) with complete DMEM medium; incubated overnight.
# • 1) Compounds were solubilized in 100% DMSO to a concentration of 50 mM. • 2) Prepared compound DMSO solutions in 384 LDV echo plate: top concentration was 10 mM, 3-fold, 10 dose-response, so intermediate concentrations were created by serially diluting by […] beginning from the 10000 μM. 5 μL tested intermediate compounds+10 μl DMSO solutions were transferred to 384 LDV echo plate. Centrifuged the echo plate at 1000 rpm for 30s before Echo procedure. Compounds were transferred 180 nL volume by Echo550 to a 96-assay plate (corning, Cat #3599), to make compound 10 concentration points in duplicate (the final top concentration was 10 μM, 3-fold, 10 dose-response, in duplicate). Final DMSO concentration is 0.1%. • 3) For the Low control wells and High control wells, 180 nL DMSO were transferred by ECHO. • 4) Layout of assay plate 180 nL/well of compounds in 100% DMSO 180 nL/well DMSO in Low control wells and High control wells was as shown below. Compounds were prepared into assay plate at […] in 100% DMSO, the assay volume was […], and final DMSO concentration was 0.1%.
# • 1)Removed culture medium, added 100 μL/well GloSensor (50×) to cells, then incubated for 2 h at room temperature.
# • 2) Pre-read Luminescence at −5 min for background after 2 h incubation.
# T1 sequence (Q15743 whole entry): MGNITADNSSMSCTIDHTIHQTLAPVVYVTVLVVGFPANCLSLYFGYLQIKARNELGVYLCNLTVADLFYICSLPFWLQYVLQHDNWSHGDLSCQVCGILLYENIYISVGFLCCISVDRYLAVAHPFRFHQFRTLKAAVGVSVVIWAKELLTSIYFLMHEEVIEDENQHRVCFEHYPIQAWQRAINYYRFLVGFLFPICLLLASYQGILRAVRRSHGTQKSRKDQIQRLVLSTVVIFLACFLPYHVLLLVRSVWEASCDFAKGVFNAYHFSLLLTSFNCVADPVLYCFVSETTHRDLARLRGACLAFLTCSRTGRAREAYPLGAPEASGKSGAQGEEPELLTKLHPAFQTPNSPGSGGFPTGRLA
row,IC50,Compound
1,0.593 µM,O=C(/C=C/c1ccc2c(cnn2CC2CC2)c1)Nc1sccc1C(=O)O [Compound 1]
2,0.861 µM,"O=C(/C=C/c1ccc2c(cnn2CC2CC2)c1)Nc1ccccc1F [Compound 2, (E)-3-(1-(cyclopropylmethyl)-1H-indazol-5-yl)-N-(2-fluorophenyl)acrylamide]"
3,1.29 µM,"O=C(/C=C/c1cc2cnn(CC3CC3)c2cc1F)Nc1ccccc1C(=O)O [Compound 4, (E)-2-(3-(1-(cyclopropylmethyl)-6-fluoro-1H-indazol-5-yl)acrylamido)benzoic acid]"
4,1.41 µM,"O=C(/C=C/c1ccc2c(cnn2CC2CC2)c1)Nc1ccccn1 [Compound 5, (E)-3-(1-(cyclopropylmethyl)-1H-indazol-5-yl)-N-(pyridin-2-yl)acrylamide]"
5,1.68 µM,"O=C(/C=C/c1ccc2c(cnn2CC2CC2)c1)Nc1ccccc1C(=O)O [Compound 6, (E)-2-(3-(1-(cyclopropylmethyl)-1H-indazol-5-yl)acrylamido)benzoic acid]"
6,2.02 µM,"O=C(/C=C/c1ccc2c(cnn2CC2CC2)c1)Nc1cccnc1C(=O)O [Compound 7, (E)-3-(3-(1-(cyclopropylmethyl)-1H-indazol-5-yl)acrylamido)picolinic acid]"
7,2.08 µM,"O=C(/C=C/c1ccc2c(cnn2CC2CC2)c1)Nc1ccccc1 [Compound 8, (E)-3-(1-(cyclopropylmethyl)-1H-indazol-5-yl)-N-phenylacrylamide]"
8,3.46 µM,"Cn1ncc2cc(/C=C/C(=O)Nc3ccccn3)ccc21 [Compound 9, (E)-3-(1-methyl-1H-indazol-5-yl)-N-(pyridin-2-yl)acrylamide]"
9,3.82 µM,"O=C(/C=C/c1ccc2c(cnn2CC2CC2)c1)Nc1cccc(C(=O)O)n1 [Compound 10, (E)-6-(3-(1-(cyclopropylmethyl)-1H-indazol-5-yl)acrylamido)picolinic acid]"
10,3.83 µM,"Cn1ncc2cc(/C=C/C(=O)Nc3ccccc3)ccc21 [Compound 11, (E)-3-(1-methyl-1H-indazol-5-yl)-N-phenylacrylamide]"
11,4.49 µM,"O=C(/C=C/c1ccc2c(cnn2CC2CC2)c1)Nc1ccccc1NS(=O)(=O)CC(F)(F)F [Compound 12, (E)-3-(1-(cyclopropylmethyl)-1H-indazol-5-yl)-N-(2-((2,2,2-trifluoroethyl)sulfonamido)phenyl)acrylamide]"
12,4.81 µM,"O=C(/C=C/c1ccc2c(cnn2CC2CC2)c1)Nc1ccccc1-c1noc(=O)[nH]1 [Compound 13, (E)-3-(1-(cyclopropylmethyl)-1H-indazol-5-yl)-N-(2-(5-oxo-4,5-dihydro-1,2,4-oxadiazol-3-yl)phenyl)acrylamide]"
13,5.72 µM,"O=C(/C=C/c1ccc2c(cnn2CC2CC2)c1)Nc1ccccc1-c1n[nH]c(=O)o1 [Compound 14, (E)-3-(1-(cyclopropylmethyl)-1H-indazol-5-yl)-N-(2-(5-oxo-4,5-dihydro-1,3,4-oxadiazol-2-yl)phenyl)acrylamide]"
14,6.68 µM,O=C(O)c1nn(C(=O)/C=C/c2ccc3c(cnn3CC3CC3)c2)c2ccccc12 [Compound 15]
15,6.9 µM,"O=C(/C=C/c1ccc2c(cnn2CC2CC2)c1)Nc1ccccc1-c1nnn[nH]1 [Compound 16, (E)-N-(2-(1H-tetrazol-5-yl)phenyl)-3-(1-(cyclopropylmethyl)-1H-indazol-5-yl)acrylamide]"
16,7.02 µM,CN(C)S(=O)(=O)NC(=O)c1ccccc1NC(=O)/C=C/c1ccc2c(cnn2CC2CC2)c1 [Compound 17]
17,7.39 µM,"NS(=O)(=O)c1ccccc1NC(=O)/C=C/c1ccc2c(cnn2CC2CC2)c1 [Compound 18, (E)-3-(1-(cyclopropylmethyl)-1H-indazol-5-yl)-N-(2-sulfamoylphenyl)acrylamide]"
18,9.7 µM,O=C(/C=C/c1ccc2c(cnn2CC2CC2)c1)NC1C2CC3CC(C2)CC1C3 (centres unmarked) [Compound 19]
19,17 µM,O=C(/C=C/c1ccc2c(cnn2CC2CC2)c1)Nc1ncccc1F [Compound 23]
20,14.9 µM,O=C(/C=C/c1ccc2c(cnn2CC2CC2)c1)Nc1ccc(F)cn1 [Compound 25]
21,11.5 µM,O=C(/C=C/c1ccc2c(cnn2CC2CC2)c1)Nc1c(F)cccc1C(=O)O [Compound 36]
22,8.6 µM,O=C(/C=C/c1ccc2c(cnn2CC2CC2)c1)Nc1ccc(F)cc1C(=O)O [Compound 55]
23,3.52 µM,O=C(/C=C/c1ccc2c(cnn2CC2CC2)c1)Nc1cc(F)ccc1C(=O)O [Compound 56]
